Measurements from US20250376484A1, “PRMT5 INHIBITORS AND USES THEREOF” (Gilead Sciences, Inc., priority 2024, published 2025).

Assays:
[1] = system: HCT116 MTAP-deleted cell lines; experiment: Cell viability assay (CellTitre-Glo), HCT116 MTAP-deleted; type: cell-based; conditions: for CC50: Homo sapiens, HCT-116, 168 h, HCT116 MTAP-deleted cells, 7 days of treatment, CTG luminescence, read-out: MTAP^del HCT116 CC50; for Selectivity: WT HCT116 CC50 versus MTAP^del HCT116 CC50
Experimental: (§1) Control compounds were analyzed in parallel each time for quality control.
(§2) In Brief, on Day-1, a serial dilution of stock compounds in DMSO was performed using BioMek liquid handlers and dispensed using Echo acoustic dispenser into 384 well plates. Both tool compounds and sample compounds were spotted in the same plate for a dose response of PRMT5 inhibitors. Compound plates were stored as frozen until the cells were ready for seeding.
(§3) On Day 0, 100 HCT WT or HCT116 MTAP-deleted cells were seeded in compound-containing 384 well plates (50 μl per well) in RPMI 1640 media supplemented with 10% heat inactivated fetal bovine serum, Glutamax and penicillin streptomycin using EL460 liquid dispenser 5 μl cassette (BioTek, part no. 7170011). After equilibrating the plate in room temperature, the cells were incubated for 7 days inside the sealed incubator set at 37° C. with […] and 5% CO2.
(§4) On Day 7, the viability of cells was measured using a CTG assay kit (CellTitre-Glo; Promega cat no. G7573). Shortly, 40 μl per well of luminescent cell viability assay reagent were dispensed using EL460 liquid dispenser 5 μl cassette. CTG luminescence signal was measured using an EnVision plate reader (PerkinElmer) in accordance with manufacturer's instruction. The CC50 values for each compound after 7 days of treatment were calculated using 4 parameter non-linear logistical curve fit.

[2] = Cell viability assay (CellTitre-Glo), HCT116 WT; type: cell-based; conditions: human; HCT116 WT cells, 7 days of treatment, CTG luminescence
Experimental: as §1, §2, §3, §4

[3] = MDR1/BCRP assay: permeability in cPgp-KO-MDCK-WT cells; type: in vitro ADME; conditions: dog, test compounds at 1 μM, 2-hour time point, pH 7.4
Experimental: (§5) cPgp-KO-MDCK-WT, cPgp-KO-MDR1-KI, and cPgp-KO—BCRP—KI cells (all from Sigma) were cultured in Dulbecco's Modification of Eagle's Medium (DMEM) with 4.5 g/L glucose, sodium pyruvate, and GlutaMAX (Gibco) supplemented with 1% Pen/Strep and 10% fetal bovine serum. The cells were maintained in an incubator at 37° C., 90% humidity, and 5% CO2 until reaching confluence over 5 days in 96-well transwell plates. Experiments were conducted using an HBSS donor buffer (Invitrogen) containing 10 mM HEPES and 15 mM glucose, adjusted to pH 7.4. The receiver well contained HBSS buffer supplemented with 1% BSA, 10 mM HEPES, and 15 mM glucose, and the pH was adjusted to 7.4. TEER values were measured to assess membrane integrity after an initial equilibration with BSA-free transport buffer for 15 minutes. The experiment was started by adding dosing solutions containing test compounds at 1 μM. Cells were dosed on the apical (A) side or basolateral (B) side at 100 μl and 200 μl, respectively, to determine forward (A to B) and reverse (B to A) permeability. At the 2-hour time point, 50 μl samples were collected from the receiver compartment. Each compound was tested in 2 separate replicate wells for each condition. All samples were immediately collected into plates, and 50 μL of acetonitrile was added. Subsequently, 350 μl of 30:70 methanol: acetonitrile containing internal standard was added to precipitate proteins and stabilize the test compounds. To test for non-specific binding and compound instability, the total amount of the drug was quantified at the end of the experiment and compared to the material present in the original dosing solution as a percentage of the recovery. All samples were analyzed by LC-MS/MS using electrospray ionization.
(§6) The apparent permeability, Papp, and % recovery were calculated as follows: […]

BCRP = target: T1, BCRP (Homo sapiens, UniProt Q9UNQ0); experiment: MDR1/BCRP assay: efflux ratio in cPgp-KO-BCRP-KI cells; type: in vitro ADME; conditions: dog, efflux ratio Papp (B-to-A)/Papp (A-to-B), 2-hour time point, read-out: cPgp-KO-BCRP-KI (ER)
T1 construct: host or cells: MDCK cells with canine Pgp knocked out and BCRP knocked in (cPgp-KO-BCRP-KI)
T1 sequence (Q9UNQ0 1-655): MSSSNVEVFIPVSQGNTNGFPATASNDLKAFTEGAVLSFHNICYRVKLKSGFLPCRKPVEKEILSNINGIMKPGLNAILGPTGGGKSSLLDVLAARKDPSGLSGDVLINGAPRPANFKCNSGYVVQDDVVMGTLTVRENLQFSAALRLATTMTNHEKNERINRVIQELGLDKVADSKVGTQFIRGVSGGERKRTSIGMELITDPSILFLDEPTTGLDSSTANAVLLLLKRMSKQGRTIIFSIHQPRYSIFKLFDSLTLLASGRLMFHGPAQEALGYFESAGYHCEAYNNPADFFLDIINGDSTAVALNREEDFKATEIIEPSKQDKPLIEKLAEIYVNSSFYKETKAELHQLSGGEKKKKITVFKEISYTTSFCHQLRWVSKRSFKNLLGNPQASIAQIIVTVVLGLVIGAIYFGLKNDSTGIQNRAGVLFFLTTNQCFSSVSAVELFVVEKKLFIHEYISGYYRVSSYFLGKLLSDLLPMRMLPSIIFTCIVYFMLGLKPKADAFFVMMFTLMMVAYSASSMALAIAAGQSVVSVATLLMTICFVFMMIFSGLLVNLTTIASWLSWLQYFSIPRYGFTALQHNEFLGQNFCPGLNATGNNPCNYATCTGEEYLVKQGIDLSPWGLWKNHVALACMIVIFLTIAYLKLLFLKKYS
Experimental: as §5, §6

MDR1 = target: T2, MDR1 (Homo sapiens, UniProt P08183); experiment: MDR1/BCRP assay: efflux ratio in cPgp-KO-MDR1-KI cells; type: in vitro ADME; conditions: dog, MDCK-MDR1, efflux ratio Papp (B-to-A)/Papp (A-to-B), 2-hour time point, read-out: cPgp-KO-MDR1-KI (ER)
T2 construct: host or cells: MDCK cells with canine Pgp knocked out and MDR1 knocked in (cPgp-KO-MDR1-KI)
Experimental: as §5, §6

T2 sequence (P08183 whole entry): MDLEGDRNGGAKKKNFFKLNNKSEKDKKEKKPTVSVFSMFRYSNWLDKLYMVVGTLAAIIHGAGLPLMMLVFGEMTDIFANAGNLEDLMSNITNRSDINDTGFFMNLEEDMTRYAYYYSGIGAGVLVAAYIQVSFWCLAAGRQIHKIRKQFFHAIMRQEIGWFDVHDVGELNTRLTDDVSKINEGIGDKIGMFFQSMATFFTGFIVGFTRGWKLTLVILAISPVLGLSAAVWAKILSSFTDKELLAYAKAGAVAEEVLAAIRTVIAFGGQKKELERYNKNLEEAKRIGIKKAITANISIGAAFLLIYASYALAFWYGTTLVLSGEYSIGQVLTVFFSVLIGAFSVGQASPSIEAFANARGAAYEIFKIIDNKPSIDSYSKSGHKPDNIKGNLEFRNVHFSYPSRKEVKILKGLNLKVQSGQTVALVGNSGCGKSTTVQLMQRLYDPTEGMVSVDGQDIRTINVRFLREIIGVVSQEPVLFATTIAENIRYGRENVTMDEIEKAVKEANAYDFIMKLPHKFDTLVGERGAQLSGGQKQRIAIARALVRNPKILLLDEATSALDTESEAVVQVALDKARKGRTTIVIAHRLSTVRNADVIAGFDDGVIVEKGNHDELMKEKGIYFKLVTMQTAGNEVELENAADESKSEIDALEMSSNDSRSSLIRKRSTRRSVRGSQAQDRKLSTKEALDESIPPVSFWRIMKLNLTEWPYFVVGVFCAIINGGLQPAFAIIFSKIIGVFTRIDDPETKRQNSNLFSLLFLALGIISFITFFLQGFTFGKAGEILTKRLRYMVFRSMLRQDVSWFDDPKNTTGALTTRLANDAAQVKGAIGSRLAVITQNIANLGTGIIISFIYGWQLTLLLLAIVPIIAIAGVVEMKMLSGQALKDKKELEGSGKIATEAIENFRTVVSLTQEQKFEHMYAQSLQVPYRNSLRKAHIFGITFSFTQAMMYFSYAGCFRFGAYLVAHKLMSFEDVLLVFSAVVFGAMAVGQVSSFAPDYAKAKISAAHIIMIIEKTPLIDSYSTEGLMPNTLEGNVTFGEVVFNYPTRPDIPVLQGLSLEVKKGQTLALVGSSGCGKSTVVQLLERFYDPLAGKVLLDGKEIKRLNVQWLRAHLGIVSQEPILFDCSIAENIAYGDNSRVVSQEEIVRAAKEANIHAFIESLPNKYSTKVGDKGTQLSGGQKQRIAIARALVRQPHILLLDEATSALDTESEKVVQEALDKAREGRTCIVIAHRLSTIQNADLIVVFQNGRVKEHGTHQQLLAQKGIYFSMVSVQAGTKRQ

Papp A→B at 2 h, 1 µM [3] [×10⁻⁶ cm/s]	efflux ratio at 2 h, 1 μM (BCRP)	efflux ratio at 2 h, 1 μM (MDR1)	SMILES	CC50 [1] [nM]	Selectivity [1]	CC50 at 7 days [2] [nM]
15.3	1.6	1.8	Cn1ncc2c(NC(=O)C(=O)N3CCC[C@@H]4Oc5cc(OC(F)F)c(F)cc5[C@@H]43)cnc(N)c21 (relative stereo) [Example Ca-9, cis-N-(7-amino-1-methyl-1H-pyrazolo[3,4-c]pyridin-4-yl)-2-(7-(difluoromethoxy)-8-fluoro-3,4,4a,9b-tetrahydrobenzofuro[3,2-b]pyridin-1(2H)-yl)-2-oxoacetamide]	34	119	4100
9.3	2.6	0.9	Cn1ncc2c(NC(=O)C(=O)N3CCC[C@@H]4Oc5cc(OC(F)(F)F)cc(F)c5[C@@H]43)cnc(N)c21 [Example Ca-6, N-(7-amino-1-methyl-1H-pyrazolo[3,4-c]pyridin-4-yl)-2-((4aS,9bS)-9-fluoro-7-(trifluoromethoxy)-3,4,4a,9b-tetrahydrobenzofuro[3,2-b]pyridin-1(2H)-yl)-2-oxoacetamide]	13	144	1880
12	0.7	1	Cn1ncc2c(NC(=O)C(=O)N3CCC[C@@H]4Oc5cc(C(F)(F)F)cc(F)c5[C@@H]43)cnc(N)c21 [Example Ca-1, N-(7-amino-1-methyl-1H-pyrazolo[3,4-c]pyridin-4-yl)-2-((4aS,9bS)-9-fluoro-7-(trifluoromethyl)-3,4,4a,9b-tetrahydrobenzofuro[3,2-b]pyridin-1(2H)-yl)-2-oxoacetamide]	10	103	1030
12.2	0.7	0.8	Cn1ncc2c(NC(=O)C(=O)N3CCC[C@@H]4Oc5cc(C(F)(F)F)ccc5[C@@H]43)cnc(N)c21 [Example Ca-2, N-(7-amino-1-methyl-11H-pyrazolo[3,4-c]pyridin-4-yl)-2-oxo-2-((4aS,9bS)-7-(trifluoromethyl)-3,4,4a,9b-tetrahydrobenzofuro[3,2-b]pyridin-1(2H)-yl)acetamide]	12	78	935
26	0.6	0.9	Cn1ncc2c(NC(=O)C(=O)N3CC[C@H]4C[C@@H]3c3ccc(OC(F)(F)F)cc3O4)cnc(N)c21 [Example Ca-4, N-(7-amino-1-methyl-1H-pyrazolo[3,4-c]pyridin-4-yl)-2-oxo-2-((2S,6R)-9-(trifluoromethoxy)-3,4-dihydro-2H-2,6-methanobenzo[b][1,5]oxazocin-5(6H)-yl)acetamide]	31	102	3200
21.4	1.1	–	Cn1ncc2c(NC(=O)C(=O)N3CCC[C@@H]4Oc5cc(Cl)ccc5[C@@H]43)cnc(N)c21 [Example Ca-7, N-(7-amino-1-methyl-1H-pyrazolo[3,4-c]pyridin-4-yl)-2-((4aS,9bS)-7-chloro-3,4,4a,9b-tetrahydrobenzofuro[3,2-b]pyridin-1(2H)-yl)-2-oxoacetamide]	16	108	1700
12.6	0.7	1.1	C[C@H]1CN(C(=O)C(=O)Nc2cnc(N)c3c2cnn3C)[C@H]2c3ccc(C(F)(F)F)cc3C[C@H]2O1 [Example Ca-3, N-(7-amino-1-methyl-11H-pyrazolo[3,4-c]pyridin-4-yl)-2-((2S,4aS,9aR)-2-methyl-7-(trifluoromethyl)-2,3,9,9a-tetrahydroindeno[2,1-b][1,4]oxazin-4(4aH)-yl)-2-oxoacetamide]	38	77	2940
19.7	9	2.5	C[C@@H]1C[C@@H]2Oc3nc(C(F)(F)F)ccc3[C@@H]2N(C(=O)C(=O)Nc2cnc(N)c3c2cnn3C)C1 [Example Ca-8, N-(7-amino-1-methyl-1H-pyrazolo[3,4-c]pyridin-4-yl)-2-((3R,4aS,9bS)-3-methyl-7-(trifluoromethyl)-3,4,4a,9b-tetrahydrofuro[2,3-b:4,5-b′]dipyridin-1(2H)-yl)-2-oxoacetamide]	13	93	1200
–	–	–	Nc1ncc(NC(=O)C(=O)N2CCC[C@@H]3Oc4cc(C(F)(F)F)ccc4[C@@H]32)c2c1COC2 [Example Cc-1, N-(4-amino-1,3-dihydrofuro[3,4-c]pyridin-7-yl)-2-oxo-2-((4aS,9bS)-7-(trifluoromethyl)-3,4,4a,9b-tetrahydrobenzofuro[3,2-b]pyridin-1(2H)-yl)acetamide]	50	38	1940
–	–	–	Nc1ncc(NC(=O)C(=O)N2CCC[C@@H]3Oc4cc(C(F)(F)F)cc(F)c4[C@@H]32)c2c1COC2 [Example Cc-2, N-(4-amino-1,3-dihydrofuro[3,4-c]pyridin-7-yl)-2-((4aS,9bS)-9-fluoro-7-(trifluoromethyl)-3,4,4a,9b-tetrahydrobenzofuro[3,2-b]pyridin-1(2H)-yl)-2-oxoacetamide]	51	37	1910
–	–	–	[2H]C([2H])([2H])n1ncc2c(NC(=O)C(=O)N3CCC[C@@H]4Oc5cc(C(F)(F)F)cc(F)c5[C@@H]43)cnc(N)c21 [Example Cb-1, N-(7-amino-1-(methyl-d3)-1H-pyrazolo[3,4-c]pyridin-4-yl)-2-((4aS,9bS)-9-fluoro-7-(trifluoromethyl)-3,4,4a,9b-tetrahydrobenzofuro[3,2-b]pyridin-1(2H)-yl)-2-oxoacetamide]	12	99	1240
